Laboratory results published in BindingDB's records for doi:10.1021/jm00102a007 (University of South Florida, 1993).

Target: T1, Adenosine receptor A1 (Cavia porcellus, UniProt P47745)
T1 sequence (P47745 whole entry): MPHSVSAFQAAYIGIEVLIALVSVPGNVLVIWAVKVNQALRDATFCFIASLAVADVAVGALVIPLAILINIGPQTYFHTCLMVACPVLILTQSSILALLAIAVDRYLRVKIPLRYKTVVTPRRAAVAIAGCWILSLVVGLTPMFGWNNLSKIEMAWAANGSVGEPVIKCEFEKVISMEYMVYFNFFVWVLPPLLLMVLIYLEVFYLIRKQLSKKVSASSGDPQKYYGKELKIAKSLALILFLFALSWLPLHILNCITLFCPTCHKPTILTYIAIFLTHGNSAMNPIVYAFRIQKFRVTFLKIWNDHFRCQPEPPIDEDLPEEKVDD
Experiment: ChEBML_29278
Text: In vitro prolonging of the stimulus-QRS interval in guinea pig heart.

EC50: 25.1 µM
Structure (SMILES): CCCCCN=Nc1nc(N)c2ncn(C3O[C@H](CO)[C@@H](O)[C@H]3O)c2n1 (stereo partly specified)
